In patent publication US9945845B2, “Methods of screening using amphibians” (priority 2009, dated 2018):
Where a name gives a salt, the structure may show the parent alone. Read-outs that look alike come from different tables or passages of the source.

Tested on: Xenopus embryos
Settings: for Type of edema Ventral: ‡ = edemas also detected in the gut; for Type of edema Periocular: * = causing bulging eyes, # = bilateral, causing narrow-set eyes
Method: 10-μl aliquots of the chemicals were transferred from the mother plates with a liquid handling robot (Aquarius, Tecan) into 96-well tissue culture plates to generate diluted stock plates (2 mM in DMSO; 50 μl final volume). […] Once embryos reached stage 31 (37 hpf), 10-μl aliquots of the diluted chemicals were added to the wells. […] Negative control wells contained embryos in screening medium and 0.1×MMR only. Embryos were treated with the chemicals in a humidified incubator at 23° C. over a timeframe of 4 days. Embryos were manually scored for the presence of edema or other morphological phenotypes using a teaching dissecting microscope (SV6; Carl Zeiss). Two investigators performed separately the scoring daily at stages 39 (56 hpf), 41 (76 hpf), 45 (98 hpf), and 47 (120 hpf). Dead embryos were removed and 100 μl of water was added daily to each well to compensate for fluid evaporation. […] For imaging at the end of the experiments. Xenopus tadpoles were anesthetized with 0.05% tricaine (Sigma #A5040) in 0.1×MMR. Images were captured using a stereomicroscope (SteREO Lumar V12; Carl Zeiss) equipped with a digital camera (AxioCam Color; Carl Zeiss).
Xenopus late tailbud embryos at stage 31 (37 hpf) were selected for compound treatment. […] Embryos were arrayed into 48-well dishes (five per well) and treated with test compounds at a concentration of 20 μM in the presence of 1% DMSO. […] All 48-well dishes also contained replicates of negative controls (1% DMSO). Embryos were monitored daily over a period of four days for edema formation. In addition, drug-induced lethality and other externally visible phenotypes were scored. On average, 320 compounds were screened per week.

[1] = compounds causing cytotoxicity, 20 μM, 1% DMSO, treatment from stage 31, Nieuwkoop & Faber stage
[2] = compounds causing edema, 20 μM, 1% DMSO, treatment from stage 31, scored to stage 47
[3] = embryonic stage, — = no stage of lethality given
[4] = onset of edema, 20 μM, 1% DMSO, treatment from stage 31, Nieuwkoop & Faber stage
[5] = compounds causing pigmentation defects, 20 μM, scored to stage 47
[6] = onset of pigmentation defects, 20 μM, 1% DMSO
[7] = compounds causing lethality, 20 μM, 1% DMSO, treatment from stage 31, Nieuwkoop & Faber stage
[8] = onset of other phenotypic defects, 20 μM, 1% DMSO

C/C=C(/C)C(=O)O[C@H]1C(C)=C2[C@H]([C@@H]1OC(=O)CCCCCCC)[C@@](C)(OC(C)=O)C[C@H](OC(=O)CCC)[C@@]1(O)[C@H]2OC(=O)[C@@]1(C)O [Thapsigargin]
Lethality (NF) [1]: 32 NF

CC1=C(/C=C/C(C)=C/C=C/C(C)=C\C(=O)O)C(C)(C)CCC1 [13-cis-retinoic acid]
Lethality (NF) [2]: 46 NF
Type of edema Pronephric (embryonic stage): 45 embryonic stages according to Nieuwkoop and Faber (NF)
Type of edema Cerebral (embryonic stage, + = cerebral edema extending dorso-anteriorly and displacing the eyes): 45+ embryonic stages according to Nieuwkoop and Faber (NF)
Lethality [3]: 46 embryonic stages according to Nieuwkoop and Faber (NF)
Type of edema Ventral (embryonic stage): 41/42
Onset (NF) [4]: 41/42

Br.C=CCN1CCc2cccc3c2[C@H]1Cc1ccc(O)c(O)c1-3 [R(-)-N-Allylnorapomorphine hydrobromide]
Lethality (NF) [5]: 40 NF
Onset (NF) [6]: 33/34

O=c1c2ccccc2[se]n1-c1ccccc1 [Ebselen, 2-Phenyl-1,2-benzisoselenazol-3(2H)-one]
Lethality (NF) [1]: 32 NF

CCNC(=O)N1CCN(CCCC(c2ccc(F)cc2)c2ccc(F)cc2)CC1.Cl [Amperozide hydrochloride, 4-[4,4-bis(4-Fluorophenyl)butyl]-N-ethyl-1-piperazinecarboxamide hydrochloride]
Type of edema Pericordial (embryonic stage): 41/42
Type of edema Periocular (embryonic stage): 45 embryonic stages according to Nieuwkoop and Faber (NF)
Type of edema Ventral (embryonic stage): 41/42
Onset (NF) [4]: 41/42

O=C(O)CCCCC1CCSS1 (racemic) [(±)-alpha-Lipoic Acid]
Type of edema Pericordial (embryonic stage): 39 embryonic stages according to Nieuwkoop and Faber (NF)
Type of edema Pronephric (embryonic stage): 42 embryonic stages according to Nieuwkoop and Faber (NF)

CCN1/C(=C/C(C)=O)Sc2ccc(OC)cc21 [TG003, (Z)-1-(3-Ethyl-5-methoxy-2,3-dihydrobenzothiazol-2-ylidene)-propan-2-one]
Lethality (NF) [7]: 40 NF

CCCCCCCCCCCCCCCC(=O)OC(CC(=O)O)C[N+](C)(C)C.[Cl-] (racemic) [Palmitoyl-DL-Carnitine chloride]
Lethality (NF) [1]: 32 NF

CC(C)(C)c1cc(C=C(C#N)C#N)cc(C(C)(C)C)c1O [Tyrphostin A9, [[3,5-bis(1,1-Dimethylethyl)-4-hydroxyphenyl]methylene]-propanedinitrile]
Lethality (NF) [1]: 32 NF

Nc1nc2ccc(Cl)cc2c2nc(-c3ccco3)nn12 [CGS -15943]
Type of edema Pericordial (embryonic stage): 41/42
Type of edema Pronephric (embryonic stage): 45 embryonic stages according to Nieuwkoop and Faber (NF)
Type of edema Ventral (embryonic stage): 45 embryonic stages according to Nieuwkoop and Faber (NF)
Lethality (in vivo): 46 embryonic stages according to Nieuwkoop and Faber (NF)

CCCCCCCCCCCCCCCCOC[C@H](COCC(F)(F)F)OP(=O)(O)OC.[Li] [MJ33, 1-Hexadecyl-3-(trifluoroethyl)-sn-glycero-2-phosphomethanol lithium]
Lethality (NF) [1]: 32 NF

COC[C@H]1OC(=O)c2coc3c2[C@@]1(C)C1=C(C3=O)[C@@H]2CCC(=O)[C@@]2(C)C[C@H]1OC(C)=O [Wortmannin from Penicillium funiculosum, Wortmannin]
Lethality (NF) [1]: 33/34

C[N+](C)(C)CCC(=O)c1cccc2ccccc12.[I-] [2-(alpha-Naphthoyl)ethyltrimethylammonium iodide]
Lethality (NF) [1]: 32 NF

CCn1cc(C(=O)O)c(=O)c2ccc(Cc3ccccc3)nc21 [Amfonelic acid, 7-Benzyl-1-ethyl-1,4-dihydro-4-oxo-1,8-naphthyridine-3-carboxylic acid]
Onset (NF) [6]: 33/34

CC[C@@]1(O)C(=O)OCc2c1cc1n(c2=O)Cc2cc3ccccc3nc2-1 [(S)-(+)-Camptothecin]
Lethality (NF) (compounds causing other phenotypic defects, 20 μM, scored to stage 47): 41/42
Onset (NF) [8]: 39 NF

CN[C@@H](C)[C@H](O)c1ccccc1.CN[C@@H](C)[C@H](O)c1ccccc1.O=S(=O)(O)O [(-)-Ephedrine hemisulfate]
Onset (NF) [6]: 33/34

CCOC(=O)C1=C(C)NC(C)=C(C(=O)OC)C1c1cccc([N+](=O)[O-])c1 (stereo not drawn) [Nitrendipine, 1,4-Dihydro-2,6-dimethyl-4-(3-nitrophenyl)-3,5-pyridinecarboxylic acid ethyl methyl ester]
Lethality (NF) [7]: 45 NF

O.c1cnc2c(c1)ccc1cccnc12 [1,10-Phenanthroline monohydrate]
Lethality (NF) [2]: 46 NF
Onset (NF) [4]: 39/40

O=c1[nH]c2ccccc2n1C1CCN(CCCC(c2ccc(F)cc2)c2ccc(F)cc2)CC1 [Pimozide]
Lethality (NF) [2]: 45 NF
Type of edema Pericordial (embryonic stage): 41/42
Type of edema Pronephric (embryonic stage): 41/42
Lethality [3]: 45 embryonic stages according to Nieuwkoop and Faber (NF)
Type of edema Ventral (embryonic stage): 41/42
Onset (NF) [4]: 41/42

Cc1ccc(Cl)c(Nc2ccccc2C(=O)O)c1Cl.[Na] [Meclofenamic acid sodium, 2-([2,6-Dichloro-3-methylphenyl]amino)benzoic acid sodium]
Lethality (NF) [2]: 41/42
Type of edema Pericordial (embryonic stage): 35/36
Lethality [3]: 41/42
Onset (NF) [4]: 35/36

CCCCCCCCCCCCCCCCCC(=O)OC(CC(=O)O)C[N+](C)(C)C.[Cl-] (racemic) [DL-Stearoylcarnitine chloride]
Lethality (NF) [7]: 41 NF

CC1(C(=O)O)C2CCC(O2)C1(C)C(=O)O (stereo not drawn) [Cantharidic Acid]
Lethality (NF) [1]: 32 NF

Cc1nc2sccn2c(=O)c1CCN1CCC(=C(c2ccccc2)c2ccc(F)cc2)CC1 [Diacylglycerol kinase inhibitor I]
Type of edema Periocular (embryonic stage): 45 embryonic stages according to Nieuwkoop and Faber (NF)
Type of edema Ventral (embryonic stage): 45 embryonic stages according to Nieuwkoop and Faber (NF)
Onset (NF) [4]: 45 NF

Nc1nc2ccc(OC(F)(F)F)cc2s1 [Riluzole, 2-Amino-6-(trifluoromethoxy)-benzothiazole]
Type of edema Pronephric (embryonic stage): 45 embryonic stages according to Nieuwkoop and Faber (NF)
Type of edema Periocular (embryonic stage): 45 embryonic stages according to Nieuwkoop and Faber (NF)
Type of edema Ventral (embryonic stage): 45 embryonic stages according to Nieuwkoop and Faber (NF)

C#C[C@]1(O)CC[C@H]2[C@@H]3CCC4=Cc5nc6nc7ccccc7n6cc5C[C@]4(C)[C@H]3CC[C@@]21C [WIN 62,577, 17-beta-Hydroxy-17-alpha-ethynyl-delta-4-androstano(3,2-b)pyrimido(1,2-a)benzimidazole]
Lethality (NF) [5]: 42 NF
Onset (NF) [6]: 33/34

O=c1[nH]c2ccccc2c2ccccc12 [6(5H-Phenanthridinone, 6(5H)-Phenanthridinone]
Lethality (NF) [2]: 47 NF
Type of edema Pericordial (embryonic stage): 45 embryonic stages according to Nieuwkoop and Faber (NF)
Type of edema Periocular (embryonic stage): 45 embryonic stages according to Nieuwkoop and Faber (NF)
Lethality [3]: 47 embryonic stages according to Nieuwkoop and Faber (NF)
Type of edema Ventral (embryonic stage): 45 embryonic stages according to Nieuwkoop and Faber (NF)

C=C(C)[C@H]1Cc2c(ccc3c2O[C@@H]2COc4cc(OC)c(OC)cc4[C@@H]2C3=O)O1 [Rotenone]
Lethality (NF) [1]: 32 NF

COC(=O)c1c(C)[nH]c(C)c1C(=O)c1ccccc1Cc1ccccc1 [FPL 64176, 2,5-Dimethyl-4-[2-(phenylmethyl)benzoyl]-1H-pyrrole-3-carboxylic acid methyl ester]
Lethality (NF) [7]: 40 NF

COCCOC(=O)C1=C(C)NC(C)=C(C(=O)OC(C)C)C1c1cccc([N+](=O)[O-])c1 (stereo not drawn) [Nimodipine, 1,4-Dihydro-2,6-dimethyl-4-(3-nitrophenyl)-3,5-pyridinecarboxylic acid 2-methoxyethyl 1-methylethyl ester]
Lethality (Xenopus laevis, in vivo): 41/42
Lethality (NF) (Xenopus laevis, in vivo): 41/42
Type of edema Pericordial (embryonic stage): 41/42
Onset (NF) [4]: 41/42

O=C(O)c1ccccc1Nc1cccc(OCc2ccc3ccccc3n2)c1 [SR 2640, 2-[[3-(2-Quinolinylmethoxy)phenyl]amino]-benzoic acid]
Lethality (NF) [1]: 32 NF

C[C@]12CC[C@H](O)CC1=CC[C@@H]1[C@@H]2CC[C@]2(C)C(=O)CC[C@@H]12 [trans-Dehydroandrosterone, 5-Androsten-3beta.ol-17-one]
Onset (NF) [8]: 41/42

CN1CCC[C@@H]1CCO[C@](C)(c1ccccc1)c1ccc(Cl)cc1 [Clemastine fumarate]
Type of edema Pericordial (embryonic stage): 46 embryonic stages according to Nieuwkoop and Faber (NF)
Type of edema Periocular (embryonic stage): 46 embryonic stages according to Nieuwkoop and Faber (NF)
Type of edema Ventral (embryonic stage): 45 embryonic stages according to Nieuwkoop and Faber (NF)

CC(C)(C)c1cc(C=C(C#N)C(N)=S)cc(C(C)(C)C)c1O [Tyrphostin AG 879, alpha-cyano-(3,5-di-t-butyl-4-hydroxy)thiocinnamide]
Lethality (NF) [1]: 32 NF

c1ccc2c(c1)[I+]c1ccccc1-2 [Diphenyleneiodonium chloride, [1,1′-Biphenyl]-2,2′-diyiodonium chloride]
Lethality (NF) (Xenopus laevis, in vivo): 42 NF

N#CCCN.N#CCCN.O=C(O)/C=C/C(=O)O [3-Aminopropionitrile fumarate]
Onset (NF) [8]: 46 NF
